The results in this text go back to patent US8822700B2, “Hepatitis C virus inhibitors” (Enanta Pharmaceuticals, Inc., priority 2009, dated 2014).

The experiment concerns HCV 1b genotype replicon. As to the kind of experiment: HCV replicon assay (qRT-PCR or luciferase), genotype 1b. The experiment is classed as cell-based. The settings on record: Hepatitis C virus; HCV 1b replicon cell lines (SGR 11-7 or Huh-luc/neo-ET); qRT-PCR or luciferase readout; two labels in one cell = mixture of the two compounds tested; read-out: Genotype-1b replicon EC50 Range. The source says:
HCV replicon cell lines (kindly provided by R. Bartenschlager) isolated from colonies as described by Lohman et. al. (Lohman et al. (1999) Science 285: 110-113, expressly incorporated by reference in its entirety) and used for all experiments. The HCV replicon has the nucleic acid sequence set forth in EMBL Accession No.: AJ242651, the coding sequence of which is from nucleotides 1801 to 8406.
The coding sequence of the published HCV replicon was synthesized and subsequently assembled in a modified plasmid pBR322 (Promega, Madison, Wis.) using standard molecular biology techniques. One replicon cell line (“SGR 11-7”) stably expresses HCV replicon RNA which consists of (i) the HCV 5′UTR fused to the first 12 amino acids of the capsid protein, (ii) the neomycin phosphotransferase gene (neo), (iii) the IRES from encephalomyocarditis virus (EMCV), and (iv) HCV NS2 to NS5B genes and the HCV 3′UTR. Another replicon cell line (“Huh-luc/neo-ET”) described by Vrolijk et. al. (Vrolijk et. al. (2003) Journal of Virological Methods 110:201-209, expressly incorporated by reference in its entirety) stably expresses HCV replicon RNA which consists of (i) the HCV 5′UTR fused to the first 12 amino acids of the capsid protein, (ii) the firefly luciferase reporter gene, (iii) the ubiquitin gene, (iv) the neomycin phosphotransferase gene (neo), (v) the IRES from encephalomyocarditis virus (EMCV), and (vi) HCV NS3 to NS5B genes that harbor cell culture adaptive mutations (E1202G, T1280I, K1846T) and the HCV 3′UTR.
These cell lines were maintained at 37° C., 5% CO2, 100% relative humidity in DMEM (Cat#11965-084, Invitrogen), with 10% fetal calf serum (“FCS”, Invitrogen), 1% non-essential amino acids (Invitrogen), 1% of Glutamax (Invitrogen), 1% of 100× penicillin/streptomycin (Cat#15140-122, Invitrogen) and Geneticin (Cat#10131-027, Invitrogen) at 0.75 mg/ml or 0.5 mg/ml for 11-7 and Huh-luc/neo-ET cells, respectively.
EC50 values of single agent compounds and combinations were determined by HCV RNA detection using quantitative RT-PCR, according to the manufacturer's instructions, with a TAQMAN® One-Step RT-PCR Master Mix Reagents Kit (Cat# AB 4309169, Applied Biosystems) on an ABI Model 7500 thermocycler. The TaqMan primers used for detecting and quantifying HCV RNA were obtained from Integrated DNA Technologies. HCV RNA was normalized to GAPDH RNA levels in drug-treated cells, which was detected and quantified using the Human GAPDH Endogenous Control Mix (Applied Biosystems, AB 4310884E). Total cellular RNA was purified from 96-well plates using the RNAqueous 96 kit (Ambion, Cat# AM1812). Chemical agent cytotoxicity was evaluated using an MTS assay according to the manufacturer's directions (Promega).
Since clinical drug resistance often develops in viral infections following single agent therapies, there is a need to assess the additive, antagonistic, or synergistic properties of combination therapies. We use the HCV replicon system to assess the potential use of the compound of the present invention or in combination therapies with Interferon alpha, cyclosporine analogs and inhibitors targeting other HCV proteins. The acute effects of a single or combinations of drugs are studied in the “Huh-luc/neo-ET” replicon with each chemical agent titrated in an X or Y direction in a 6 point two-fold dilution curve centered around the EC50 of each drug. Briefly, replicon cells are seeded at 7,000 cells per well in 90 ul DMEM (without phenol red, Invitrogen Cat.#31053-036) per well with 10% FCS, 1% non-essential amino acids, 1% of Glutamax and 1% of 100× penicillin/streptomycin and incubated overnight at 37° C., 5% CO2, 100% relative humidity. […]
In general terms: A replicon is a self-replicating genome or part of one, used to study replication in cells.

SMILES strings stand for the structures.

Turning to `COC(=O)N[C@H](C(=O)N[C@H]1CCC[C@@H]1C(=O)Nc1ccc(-c2ccc(-c3c[nH]c([C@@H]4CCCN4C(=O)[C@@H](NC(=O)OC)C(C)C)n3)cc2)cc1)C(C)C` (racemic) [349a and 349b], the EC50 – broadly, the midpoint of the concentration-response curve – was 1 to 10 nM.
For the compound `COC(=O)N[C@H](C(=O)N[C@@H]1CCC[C@H]1NC(=O)c1ccc(-c2ccc(-c3c[nH]c(C4CCCN4C(=O)[C@@H](NC(=O)OC)C(C)C)n3)cc2)cc1)C(C)C` (mixture of isomers) [367a and 367b], the EC50 is under 1 nM.
For `COC(=O)N[C@H](C(=O)N[C@@H]1CCC[C@H]1NC(=O)c1ccc(-c2ccc(-c3ccc4[nH]c([C@@H]5CCCN5C(=O)[C@@H](NC(=O)OC)C(C)C)nc4c3)cc2)cc1)C(C)C` (racemic) [371a and 371b], the EC50 was under 1 nM.
Next, `COC(=O)N[C@H](C(=O)O[C@@H]1CCC[C@H]1NC(=O)c1ccc(-c2ccc(-c3c[nH]c([C@@H]4CCCN4C(=O)[C@@H](NC(=O)OC)C(C)C)n3)cc2)cc1)C(C)C` (racemic) [377a and 377b]: under 1 nM; `COC(=O)N[C@H](C(=O)N1CCC[C@@H](C(=O)Nc2ccc(-c3ccc(-c4cnc([C@@H]5CCCN5C(=O)[C@@H](NC(=O)OC)C(C)C)[nH]4)cc3)cc2)C1)C(C)C` (racemic) [382a and 382b]: under 1 nM.
In the case of `COC(=O)N[C@H](C(=O)N1CC[C@H](C(=O)Nc2ccc(-c3ccc(-c4cnc([C@@H]5CCCN5C(=O)[C@@H](NC(=O)OC)C(C)C)[nH]4)cc3)cc2)C1)C(C)C` [Example 83], the EC50 lay in the range of 1 to 10 nM.
For `COC(=O)N[C@H](C(=O)N1CCC[C@H]1CNC(=O)c1ccc(-c2ccc(-c3cnc([C@@H]4CCCN4C(=O)[C@@H](NC(=O)OC)C(C)C)[nH]3)cc2)cc1)C(C)C` [Example 257], the EC50 is under 1 nM.
In the case of `COC(=O)N[C@H](C(=O)N1CC[C@H](C(=O)Nc2ccc3cc(-c4ccc5[nH]c([C@@H]6CCCN6C(=O)[C@@H](NC(=O)OC)C(C)C)nc5c4)ccc3c2)C1)C(C)C` [Example 327], the EC50 was over 10 nM.
To `COC(=O)N[C@H](C(=O)N1CC[C@@H](NC(=O)c2ccc(-c3ccc(-c4c[nH]c([C@@H]5CCCN5C(=O)[C@@H](NC(=O)OC)C(C)C)n4)cc3)cc2)C1)C(C)C` [Example 352] belongs 1 to 10 nM.
On to `COC(=O)N[C@H](C(=O)N1CCC(C(=O)Nc2ccc(-c3ccc(-c4c[nH]c([C@@H]5CCCN5C(=O)[C@@H](NC(=O)OC)C(C)C)n4)cc3)cc2)C1)C(C)C` (stereo partly shown) [Example 355], for which the EC50 fell in the range of 1 to 10 nM.
Take `COC(=O)N[C@H](C(=O)N1CCC[C@H]1CNC(=O)c1cccc(-c2ccc3cc(-c4c[nH]c([C@@H]5CCCN5C(=O)[C@@H](NC(=O)OC)C(C)C)n4)ccc3c2)c1)C(C)C` [Example 361]: the EC50 was in the range of 1 to 10 nM.
As to `COC(=O)N[C@H](C(=O)N1CCC(C(=O)Nc2ccc(-c3ccc4[nH]c([C@@H]5CCCN5C(=O)[C@@H](NC(=O)OC)C(C)C)nc4c3)cc2)C1)C(C)C` (stereo partly shown) [Example 363], the EC50 was over 10 nM.
`COC(=O)N[C@H](C(=O)N1CC[C@H](C(=O)Nc2ccc3cc(-c4ccc(-c5c[nH]c([C@@H]6CCCN6C(=O)[C@@H](NC(=O)OC)C(C)C)n5)cc4)ccc3c2)C1)C(C)C` [Example 365]: the EC50 was 1 to 10 nM.
Next, `COC(=O)N[C@H](C(=O)N[C@@H]1CCC[C@H]1NC(=O)c1ccc(-c2ccc(-c3c[nH]c([C@@H]4CCCN4C(=O)[C@@H](NC(=O)OC)C(C)C)n3)cc2)cc1)C(C)C` [Example 369]: over 10 nM.
For the compound `COC(=O)N[C@H](C(=O)N1CC[C@H](NC(=O)c2ccc(-c3ccc(-c4c[nH]c([C@@H]5CCCN5C(=O)[C@@H](NC(=O)OC)C(C)C)n4)cc3)cc2)C1)C(C)C` [Example 372], the EC50 is 1 to 10 nM.
To `COC(=O)N[C@H](C(=O)N1CC[C@@H](C(=O)Nc2ccc(-c3ccc(-c4c[nH]c([C@@H]5CCCN5C(=O)[C@@H](NC(=O)OC)C(C)C)n4)cc3)cc2)C1)C(C)C` [Example 374] belongs under 1 nM.
To `COC(=O)N[C@H](C(=O)N1CC[C@H](C(=O)Nc2ccc(-c3ccc(-c4c[nH]c([C@@H]5CCCN5C(=O)[C@@H](NC(=O)OC)C(C)C)n4)cc3)cn2)C1)C(C)C` [Example 379] belongs under 1 nM.
Next, `COC(=O)N[C@H](C(=O)N1CCC[C@@H]1CNC(=O)c1ccc(-c2ccc(-c3cnc([C@@H]4CCCN4C(=O)[C@@H](NC(=O)OC)C(C)C)[nH]3)cc2)cc1)C(C)C` [Example 380]: 1 to 10 nM; `COC(=O)N[C@H](C(=O)NC[C@H]1CCCN1C(=O)c1ccc(-c2ccc(-c3cnc([C@@H]4CCCN4C(=O)[C@@H](NC(=O)OC)C(C)C)[nH]3)cc2)cc1)C(C)C` [Example 381]: over 10 nM.
